Values of other authors, collected in patent US20260183709A1, “GAS PURIFICATION METHOD AND GAS PURIFIER” (priority 2022, published 2026).
Read-outs that look alike come from different tables or passages of the source.

Key:
escherichia coli [1] = conditions: in the 25° C. air; ozone concentration 0.05 ppm; acting time 30 minutes
escherichia coli phage = conditions: ozone concentration 0.09-0.8 ppm; acting time 3 minutes
[2] = test system: common bacteria such as Escherichia coli, streptococcus, Pseudomonas aeruginosa, Staphylococcus aureus, and toxic bacteria; conditions: in 15 minutes in the ozone environment
[3] = test system: bacillus subtilis variant; conditions: in water; ozone concentration 4.6 mg/L; acting time 3 minutes
penicillium = conditions: in the air; acting time 30 minutes; no ozone concentration printed
Vibrio cholerae = conditions: phosphate buffer solution; ozone introduction; acting time 15 seconds
HAsAg = conditions: in water; ozone concentration 13.6 ppm; acting time 30 minutes (cells shared with line above)
aspergillus versicolor = conditions: in the air; ozone concentration 9.6 ppm; acting time 100 minutes
Influenza A virus = conditions: ozone concentration 0.5 ppm; conditions and time not printed on the line (line above: in the air, 30 minutes)
HBsAg = conditions: in the air; ozone concentration 0.3 ppm; acting time 30 minutes
mucor = conditions: acting time 30 minutes; killing rate cell shared with penicillium line; no ozone concentration printed
pseudomonas fluorescens = conditions: phosphate buffer solution; ozone introduction; acting time 15 seconds
penicillium nigricans = conditions: ozone concentration 12.5 ppm; acting time 35 minutes; killing rate cell shared with r37
escherichia coli [4] = conditions: 10° C.; ozone concentration 0.3 ppm; acting time 1 minute
poliovirus = conditions: in water; ozone concentration 0.13 ppm; acting time 3 minutes
pseudomonas aeruginosa = conditions: ozone concentration 0.08-0.6 ppm; acting time 30 minutes
penicillium citrinum = conditions: ozone concentration 15.4 ppm; acting time 30 minutes; killing rate cell shared with r37
human rotavirus = conditions: ozone concentration 0.25 ppm
cladosporium herbarum = conditions: ozone concentration 23 ppm; acting time 30 minutes; killing rate cell shared with r37
simian rotavirus = conditions: ozone concentration 0.25 ppm
F's dysentery bacillus = conditions: phosphate buffer solution; ozone introduction; acting time 15 seconds
aspergillus niger = conditions: ozone concentration 1.5 ppm; acting time 1 minute; 'in water' printed on the line above
fusarium oxysporum = conditions: ozone concentration 15.5 ppm; acting time 20 minutes; killing rate cell shared with r37
staphylococcus aureus = conditions: in the air; ozone concentration 9 ppm; acting time 60 minutes
[5] = test system: human immunodeficiency virus (HIV); conditions: in serum; ozone concentration 4 ppm
staphylococcus albus = conditions: ozone concentration 10 ppm; acting time 3 minutes
Salmonella typhimurium = conditions: phosphate buffer solution; ozone introduction; acting time 15 seconds
[6] = test system: bacillus subtilis variant; conditions: in the air; ozone concentration 2.5 mg/L; acting time 1 minute

O=[O+][O-] [Ozone, ozone]
Killing rate (escherichia coli [1]): 100% | Killing rate (drop by log values) (escherichia coli phage): drop by 7 log log values | sterilization rate [2]: above 99% | Killing rate [3]: 100% | Killing rate (penicillium): 93.8% | Killing rate (Vibrio cholerae): 100% | Killing rate (HAsAg): 100% | Killing rate (aspergillus versicolor): 100% | Killing rate (Influenza A virus): 100% | Killing rate (HBsAg): 75% | Killing rate (mucor): 93.8% | Killing rate (pseudomonas fluorescens): 100% | Killing rate (penicillium nigricans): 100% | Killing rate (escherichia coli [4]): 100% | Killing rate (poliovirus): 100% | Killing rate (pseudomonas aeruginosa): 99.9% | Killing rate (penicillium citrinum): 100% | Killing rate (human rotavirus): 100% | Killing rate (cladosporium herbarum): 100% | Killing rate (simian rotavirus): 100% | Killing rate (F's dysentery bacillus): 100% | Killing rate (aspergillus niger): 100% | Killing rate (fusarium oxysporum): 100% | Killing rate (staphylococcus aureus): 99.97% | Killing rate (drop by log values in titer) [5]: drop by 6 log values in titer | Killing rate (staphylococcus albus): 99.99% | Killing rate (Salmonella typhimurium): 100% | sterilization rate faster than chlorine (bacteria; compared with chlorine): 600-3000 times | bactericidal ability higher than the ultraviolet rays (bacteria; compared with ultraviolet rays): 20% | sterilization rate faster in the water than chlorine (bacteria; in the water, compared with chlorine): 600 times | Killing rate [6]: 100%
